Laboratory results published in patent US20050209310A1, “Methods for modulating tumor growth and metastasis” (priority 2000, published 2005).

Assays:
[1] = tested on: A2780 human ovarian tumor xenografts; experiment: Tumor perfusion studies of CA1P, A2780 xenografts
[2] = tested on: ES2 human clear cell ovarian carcinoma; experiment: Multi-drug resistant ES2 ovarian carcinoma model, tumor size and survival; format: in vivo, Fox Chase CB-17 SCID mice
Method: The multi-drug resistant ES2 human clear cell ovarian carcinoma was established by subcutaneous injection of cultured ES2 cells in Fox Chase CB-17 SCID mice. In one experiment, tumor-bearing mice were administered CA4P at a dose of 100 mg/kg (Group II), saline carrier only (Group I), an intraperitoneal (i.p.) injection of paclitaxel at a dose of 9 mg/kg, followed 30 minutes later by an infusion of carboplatin at a dose of 30 mg/kg […], or CA4P (100 mg/kg) followed 24 hours later by paclitaxel and carboplatin as in Group II (Group IV). Treatment with anticancer agents was performed once a week for 4 weeks (i.e. on Day 11, 19, 26, and 33). Tumors in each treatment group (n=2) were measured every 4 days by width and length. Tumor size (i.e. volume) was calculated according to the following formula: Length×Width^2×0.4.
In a second experiment, tumor-bearing mice were administered CA1P and/or carboplatin and paclitaxel in the same treatment regime as the first experiment.

[3] = tested on: N87 gastric cancer tumor xenografts; experiment: Tumor perfusion studies of CA1P, N87 xenografts
[4] = tested on: M5076 murine fibrosarcoma; experiment: In vivo antitumor testing, sc M5076 murine fibrosarcoma; conditions: for complete response (disappearance of tumors): CA1P + carboplatin vs either agent alone (FIG. 11); for minimum effective dose required for synergistic enhancement: in combination with carboplatin (FIG. 10)
Method: (§1) The following protocols are provided to facilitate the practice of Examples I and II. • Drug administration: For administration to rodents, CA4P was dissolved in normal saline (0.9% NaCl). Paclitaxel was dissolved in a 50/50 mixture of ethanol and Cremophor® and stored at 4° C.; final dilution of paclitaxel was obtained immediately before drug administration with NaCl 0.9%. Fresh preparation of paclitaxel was employed to avoid precipitation. CPT-11 was dissolved in normal saline. • The volume of all compounds injected was 0.01 ml/g of mice, and 0.005 ml/g of rats. • In Vivo Antitumor Testing: The following tumor models were used: A2780 human ovarian carcinoma, the murine fibrosarcoma M5076 and M5076/ddp (resistant to cisplatin and carboplatin).
(§2) The human tumors were maintained in Balb/c nu/nu nude mice. M5076 and M5076ddp were maintained in C57BL/6 mice. Tumors were propagated as subcutaneous transplants in the appropriate mouse strain using tumor fragments obtained from donor mice.
(§3) The following tumors were passaged in the indicated host strain of mouse: murine M5076 fibrosarcoma (M5076) in C57B1/6 mice; human A2780 ovarian carcinomas in nude mice. Tumor passage occurred biweekly for murine tumors and approximately every two to three weeks for the human tumor line. With regard to efficacy testing, M5076 and M507 6ddp tumors were implanted in (C57B1/6×DBA/2)F1 hybrid mice, and human tumors were implanted in nude mice. All tumor implants for efficacy testing were subcutaneous (sc).
The required numbers of animals needed to detect a meaningful response were pooled at the start of the experiment and each was given a subcutaneous implant of a tumor fragment (˜50 mg) with a 13-gauge trocar. For treatment of early-stage tumors, the animals were again pooled before distribution to the various treatment and control groups. For treatment of animals with advanced-stage disease, tumors were allowed to grow to the predetermined size window (tumors outside the range were excluded) and animals were evenly distributed to various treatment and control groups. Treatment of each animal was based on individual body weight. Treated animals were checked daily for treatment related toxicity/mortality. Each group of animals was weighed before the initiation of treatment (Wt1) and then again following the last treatment dose (Wt2). The difference in body weight (Wt2−Wt1) provides a measure of treatment-related toxicity.
Tumor response was determined by measurement of tumors with a caliper twice a week, until the tumors reach a predetermined “target” size of 1 gm. Tumor weights (mg) were estimated from the formula: Tumor weight=(length×width2)÷2 Antitumor activity was evaluated at the maximum tolerated dose (MTD) which is defined as the dose level immediately below which excessive toxicity (i.e. more than one death) occurred. […] When death occurs, the day of death was recorded.
Tumor response end-point was expressed in terms of tumor growth delay (T−C value), defined as the difference in time (days) required for the treated tumors (T) to reach a predetermined target size compared to those of the control group (C).
To estimate tumor cell kill, the tumor volume doubling time was first calculated with the formula: TVDT=Median time (days) for control tumors to reach target size−Median time (days) for control tumors to reach half the target size and, Log cell kill=T−C÷(3.32×TVDT).
Statistical evaluations of data were performed using Gehan's generalized Wilcoxon test.

[5] = tested on: A2780 human ovarian carcinoma; experiment: In vivo antitumor testing, A2780 human ovarian carcinoma xenograft
Method: as §1, §2, §3
The required numbers of animals needed to detect a meaningful response were pooled at the start of the experiment and each was given a subcutaneous implant of a tumor fragment (˜50 mg) with a 13-gauge trocar. For treatment of early-stage tumors, the animals were again pooled before distribution to the various treatment and control groups. For treatment of animals with advanced-stage disease, tumors were allowed to grow to the predetermined size window (tumors outside the range were excluded) and animals were evenly distributed to various treatment and control groups. […]
Tumor response was determined by measurement of tumors with a caliper twice a week, until the tumors reach a predetermined “target” size of 1 gm. Tumor weights (mg) were estimated from the formula: Tumor weight=(length×width2)÷2 Antitumor activity was evaluated at the maximum tolerated dose (MTD) which is defined as the dose level immediately below which excessive toxicity (i.e. more than one death) occurred. […] When death occurs, the day of death was recorded. […]
To estimate tumor cell kill, the tumor volume doubling time was first calculated with the formula: TVDT=Median time (days) for control tumors to reach target size−Median time (days) for control tumors to reach half the target size and, Log cell kill=T−C÷(3.32×TVDT). […]

[6] = tested on: N87 human gastric carcinoma; experiment: Single agent antitumor activity, N87 xenograft model; conditions: in vivo
[7] = tested on: M5076DDP murine fibrosarcoma; experiment: In vivo antitumor testing, sc M5076DDP murine fibrosarcoma (resistant to cisplatin and carboplatin); set-up: species or system mice
Method: Fresh preparation of paclitaxel was employed to avoid precipitation.
M5076 and M5076ddp were maintained in C57BL/6 mice.
All tumor implants for efficacy testing were subcutaneous (sc).
The MTD was frequently equivalent to OD. When death occurs, the day of death was recorded.
M507 6DDP is a murine fibrosarcoma that has developed resistance to cisplatin and cross-resistance to carboplatin. The in vivo antitumor activity of CA4P or CA1P in combination with each of these platinum coordination compounds and CPT-11 were evaluated in M5076DDP tumor bearing mice.

[8] = tested on: sc A2780 human ovarian carcinoma; experiment: Tumor perfusion, Evans blue dye uptake assay, mice; format: in vivo; conditions: iv, optimal dose, Evans blue injected an hour later (FIG. 5A)
Method: (§4) The effects of CA4P disodium salt on tumor perfusion were also studied using the Evans blue dye uptake assay. Mice or rats bearing sc A2780 human ovarian carcinoma were administered an iv dose of CA4P disodium salt. An hour later, Evans blue was injected iv. The amount of Evans blue accumulated in the tumor is proportional to the blood flow through the tumor.

[9] = tested on: sc A2780 human ovarian carcinoma; experiment: Tumor perfusion, Evans blue dye uptake assay, rats; format: in vivo; conditions: iv, optimal dose, Evans blue injected an hour later (FIG. 5B)
Method: as §4

[10] = Hematological analysis of whole blood, Phase I trial of CA4P; format: in vivo, human
Method: Hematological analysis was performed on whole blood obtained from patients participating in a Phase I trial of CA4P (see Rustin et al., J. Clin. Oncol. (2003)). All patients had histologically confirmed tumors and were either not amenable to standard curative therapy or were refractory to conventional therapy. Blood work was obtained from each patient 1 minute prior to treatment, every 15 minutes for the first hour post-treatment, and at 1.5, 2, 4, 8, 12 and 24 hours following infusion with the first dose of CA4P (52-114 mg/m^2). Art-recognized hematology methods were used in the analysis.
All full or differential blood cell counts were performed using a hematology flow cytometer (Technicon H2, Bayer Inc.). Total white blood cell (“WBC” or leukocyte) and red blood cell (“RBC” or erythrocyte) counts were established using direct laser flow cytometry. A differential count for leukocyte cells of myeloid origin (e.g. eosinophils, neutrophils, monocytes) was obtained by fluorescent flow cytometry of cells stained for myeloperoxidase. Unstained cells were assumed to be lymphocytes and basophils. Lymphocyte counts were obtained by subtracting those cells that stained […] for a second, basophil-specific cell stain. Mean Corpuscular Volume (MCV) and Mean Corpuscular Haemoglobin (MCH) were also obtained by laser flow cytometry. The haematocrit (Hct) was calculated from the RBC count and the MCV. The coagulant status of each blood sample was determined by measuring fibrinogen content, prothrombin time, and kaolin partial thromboplastin time (when kaolin is used instead of micronised silica as the activator).
Cell counts were averaged from nineteen patients treated with a range of CA4P doses (52 to 114 mg/m^2). The results of the complete hematological analysis obtained at 4 and 24 hours post-treatment are presented in FIG. 18 as a percentage of the corresponding pretreatment value. […] The increase in white blood cells occurred despite a significant decrease in lymphocyte count (i.e. T and B-lymphocytes). […] The more than 2-fold increase in neutrophils and more than 20% decrease in lymphocytes was transient however, as white blood cell counts returned to normal levels within 24 hours of treatment.

[11] = 4 hours following treatment, CA4P 52 to 114 mg/m^2, nineteen patients

COc1cc(/C=C\c2ccc(OC)c(OP(=O)(O)O)c2OP(=O)(O)O)cc(OC)c1OC [CA1P, combretastatin A-1 diphosphate]
inhibition of tumor blood flow ([1]; A2780 xenografts in mice): significantly inhibited tumor blood flow
potency of blood flow inhibition relative to CA4P ([1]; daily single agent for ten days, human tumor xenografts in nude mice (N87, A2780; FIG. 9)): 5-10 times
control of tumor growth ([2]; second experiment: CA1P and/or carboplatin and paclitaxel, same regime (FIG. 15)): considerable anti-tumor growth delay
inhibition of tumor blood flow [3]: significantly inhibited tumor blood flow
complete response (disappearance of tumors) [4]: not observed
minimum effective dose required for synergistic enhancement [4]: 4 to 8 mg/kg
log cell kill (LCK) ([5]; CA1P at MTD 9 mg/kg, ip, q1dx8): 2.1 LCK
maximum tolerated dose (MTD) ([5]; CA1P, ip, q1dx8): 9 mg/kg
single agent activity [6]: improved single agent activity

COc1ccc(/C=C\c2cc(OC)c(OC)c(OC)c2)cc1OP(=O)(O)O [CA4P, combretastatin A-4 phosphate]
log cell kill (LCK) ([7]; CA4P single agent, optimal dose 150 mg/kg/inj, iv, everyday x10 (Monday thru Friday), advanced (300 mg) tumors): 1.1 LCK
CA4P dose sufficient to enhance the antitumor activity of carboplatin ([7]; iv, q4dx3, doses without single agent activity, carboplatin at a range of dose levels (FIG. 7)): 12.5-25 mg/m^2
reduction of tumor blood flow [8]: 67%
reduction of tumor blood flow [9]: 87%
animals still alive at the conclusion of the experiment ([2]; first experiment (FIG. 14)): 30%
control of tumor growth ([2]; first experiment: CA4P 100 mg/kg, paclitaxel 9 mg/kg, carboplatin 30 mg/kg, once a week for 4 weeks (FIG. 13)): not significantly more effective than paclitaxel and carboplatin
single agent antitumor activity ([4]; CA4P administered Q4Dx3, separate experiment): no activity
maximum tolerated dose (MTD) as a single agent ([4]; CA4P single agent): > 250 mg/kg/inj
optimal CA4P dose required for therapeutic synergy ([4]; in combination with carboplatin (FIG. 3B)): < 90 mg/kg/inj
minimum effective dose required for synergistic enhancement [4]: 25 to 50 mg/kg
decrease in lymphocytes [10, 11]: more than 20%
increase in neutrophils [10, 11]: more than 2 fold
total white blood cell count ([10]; 4 hours following treatment, CA4P 52 to 114 mg/m^2, nineteen patients, vs pretreatment): highly significant increase
time for white blood cell counts to return to normal levels ([10]; after treatment with CA4P): ≤ 24 h
log cell kill (LCK) ([5]; CA4P at 150 mg/kg, ip): 1.1 LCK

CCc1c2c(nc3ccc(OC(=O)N4CCC(N5CCCCC5)CC4)cc13)-c1cc3c(c(=O)n1C2)COC(=O)[C@]3(O)CC [CPT-11, CPT-11 (irinotecan), reference compound]
log cell kill (LCK) ([5]; CPT-11 at its MTD): 3.3 LCK

N.N.O=C([O-])C1(C(=O)[O-])CCC1.[Pt+2] [carboplatin, Carboplatin, reference compound]
complete response (disappearance of tumors) [4]: not observed
log cell kill (LCK) ([4]; carboplatin alone at MTD 90 mg/kg/inj, iv, Q4Dx3, large sc tumors (300 mg)): 1.4 LCK
tumor regression / shrinkage ([4]; carboplatin alone at MTD vs best CA4P + carboplatin combination (FIG. 3A)): no tumor regression
maximum tolerated dose (MTD) ([4]; carboplatin, iv, Q4Dx3): 90 mg/kg/inj

N.N.[Cl][Pt][Cl] [cisplatin]
shrinkage of tumors following treatment ([7]; combination vs single agent cisplatin (FIG. 1)): did not
maximum tolerated dose (MTD) ([7]; injected every 4 days for 3 doses (Q4Dx3)): 7.5 mg/kg
log cell kill (LCK) ([7]; single agent cisplatin at MTD 7.5 mg/kg, iv, Q4Dx3): 0.8 LCK
